According to patent publication US20160168118A1, “N-(5-QUINOLIN-6-YL)PYRIDIN-3-YL) BENZSULFAMIDE DERIVATIVES, PREPARATION METHOD AND THERAPEUTIC USE THEREOF” (SECOND MILITARY MEDICAL UNIVERSITY, PLA, priority 2012, published 2016):
pIC50: −log10 of the molar value. In brackets after ≈: the same amount, converted by molar mass.

Experiments:
[1] = test system: HCT116 (human colon cancer cells); assay: MTT assay, HCT116; format: cell-based; settings: HCT-116, 72 h
[2] = test system: A549 (human lung cancer cells); assay: MTT assay, A549; format: cell-based; settings: 72 h
Method: (§1) 1. Sample preparation: After dissolved with DMSO (Merck), PBS (−) was added to make 1000 μg/ml solution or a uniform suspension, and then diluted with PBS (−) containing the DMSO. Doxorubicin (DOX) was used as the positive control drug.
(§2) 2. Cell Line • 1) A549 (human lung cancer cells); 2) HCT116 (human colon cancer cells); 3) HepG2 (human hepatoma cells); 4) ZR-75-30 (human breast cancer cells); 5) U87MG (human brain star glioblastoma)
(§3) DMEM+5-10% FBS+double resistant
(§4) MTT assay. 100 μl cell suspension was added at a concentration of 4˜5×10^4 cells/ml to each well of a 96-well plate, and was set at 37° C., 5% CO2 in the incubator. After 24 h, the sample solution was added, 10 μl/hole, double wells were set, 37° C., acting for 72 h at 5% CO2. […] of 5 mg/ml was added to each well, the dissolving liquid was added after acted for 4 h, 100 μl/hole, kept in the incubator, and read 570 nm OD with MK-2 automatic microplate reader after dissolution.

[3] = test system: HepG2 (human hepatoma cells); assay: MTT assay, HepG2; format: cell-based; settings: 72 h
Method: as §1, §2, §3, §4

[4] = test system: U87MG (human brain star glioblastoma); assay: MTT assay, U87MG; format: cell-based; settings: U-87 MG, 72 h
Method: as §1, §2, §3, §4

[5] = test system: ZR-75-30 (human breast cancer cells); assay: MTT assay, ZR-75-30; format: cell-based; settings: 72 h
Method: as §1, §2, §3, §4

[6] = target: PI3Kα (Homo sapiens, UniProt P42336); assay: Kinase-Glo Luminescent Kinase Assay, PI3Kα; format: biochemical
Sequence of PI3Kα (P42336 whole entry, species assumed): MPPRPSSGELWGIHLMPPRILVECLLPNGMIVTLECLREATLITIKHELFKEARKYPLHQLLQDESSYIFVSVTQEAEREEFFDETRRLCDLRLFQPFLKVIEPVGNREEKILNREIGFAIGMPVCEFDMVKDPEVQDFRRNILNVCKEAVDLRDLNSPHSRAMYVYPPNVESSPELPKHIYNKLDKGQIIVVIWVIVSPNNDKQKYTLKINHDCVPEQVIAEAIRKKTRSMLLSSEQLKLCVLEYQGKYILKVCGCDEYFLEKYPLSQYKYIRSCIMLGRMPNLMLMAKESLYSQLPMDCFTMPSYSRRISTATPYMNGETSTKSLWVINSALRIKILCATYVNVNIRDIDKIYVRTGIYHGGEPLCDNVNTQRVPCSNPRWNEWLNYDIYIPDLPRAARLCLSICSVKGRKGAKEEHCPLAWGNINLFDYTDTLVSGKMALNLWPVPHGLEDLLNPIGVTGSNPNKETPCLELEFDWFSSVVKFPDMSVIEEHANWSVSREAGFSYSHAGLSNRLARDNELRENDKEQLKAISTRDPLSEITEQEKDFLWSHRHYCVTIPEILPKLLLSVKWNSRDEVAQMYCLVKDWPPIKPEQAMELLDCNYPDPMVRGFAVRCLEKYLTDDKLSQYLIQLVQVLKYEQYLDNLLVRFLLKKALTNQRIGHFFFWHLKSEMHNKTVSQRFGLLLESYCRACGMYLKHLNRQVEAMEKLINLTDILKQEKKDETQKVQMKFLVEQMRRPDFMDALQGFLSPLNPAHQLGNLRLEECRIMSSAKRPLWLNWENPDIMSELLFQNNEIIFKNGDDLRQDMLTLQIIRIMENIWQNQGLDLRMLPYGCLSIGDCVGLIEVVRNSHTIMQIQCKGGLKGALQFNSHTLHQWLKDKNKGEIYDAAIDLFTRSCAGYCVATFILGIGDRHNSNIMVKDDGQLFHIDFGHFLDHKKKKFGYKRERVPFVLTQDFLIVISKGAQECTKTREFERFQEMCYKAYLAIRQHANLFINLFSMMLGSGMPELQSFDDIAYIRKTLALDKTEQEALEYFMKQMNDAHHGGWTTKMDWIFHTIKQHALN
Sequence of PI3Kα (P27986 whole entry partner, species assumed): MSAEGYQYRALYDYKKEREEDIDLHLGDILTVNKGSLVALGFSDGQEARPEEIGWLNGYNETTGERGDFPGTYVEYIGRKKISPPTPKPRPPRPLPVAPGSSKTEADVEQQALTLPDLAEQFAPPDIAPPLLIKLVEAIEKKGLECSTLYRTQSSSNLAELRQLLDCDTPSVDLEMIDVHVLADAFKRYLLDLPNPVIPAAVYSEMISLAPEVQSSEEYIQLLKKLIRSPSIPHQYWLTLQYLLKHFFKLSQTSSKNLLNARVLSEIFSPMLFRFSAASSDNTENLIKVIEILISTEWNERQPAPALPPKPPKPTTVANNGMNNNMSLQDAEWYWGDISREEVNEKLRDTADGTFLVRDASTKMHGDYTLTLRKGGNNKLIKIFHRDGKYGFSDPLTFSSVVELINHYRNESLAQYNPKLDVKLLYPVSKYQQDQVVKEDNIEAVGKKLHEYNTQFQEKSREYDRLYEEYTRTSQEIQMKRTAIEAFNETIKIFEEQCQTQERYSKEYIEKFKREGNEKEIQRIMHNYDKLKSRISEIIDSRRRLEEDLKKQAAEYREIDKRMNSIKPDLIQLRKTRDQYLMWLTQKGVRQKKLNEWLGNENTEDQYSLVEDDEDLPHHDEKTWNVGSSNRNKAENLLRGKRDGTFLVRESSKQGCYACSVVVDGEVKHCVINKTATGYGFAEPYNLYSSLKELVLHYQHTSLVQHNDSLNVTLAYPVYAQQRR

[7] = target: PI3Kγ (Homo sapiens, UniProt P48736); assay: ADP-Glo Luminescent Kinase Assay, PI3Kγ; format: biochemical; settings: read-out: IC50 on PI3K gamma
Sequence of PI3Kγ (P48736 whole entry, species assumed): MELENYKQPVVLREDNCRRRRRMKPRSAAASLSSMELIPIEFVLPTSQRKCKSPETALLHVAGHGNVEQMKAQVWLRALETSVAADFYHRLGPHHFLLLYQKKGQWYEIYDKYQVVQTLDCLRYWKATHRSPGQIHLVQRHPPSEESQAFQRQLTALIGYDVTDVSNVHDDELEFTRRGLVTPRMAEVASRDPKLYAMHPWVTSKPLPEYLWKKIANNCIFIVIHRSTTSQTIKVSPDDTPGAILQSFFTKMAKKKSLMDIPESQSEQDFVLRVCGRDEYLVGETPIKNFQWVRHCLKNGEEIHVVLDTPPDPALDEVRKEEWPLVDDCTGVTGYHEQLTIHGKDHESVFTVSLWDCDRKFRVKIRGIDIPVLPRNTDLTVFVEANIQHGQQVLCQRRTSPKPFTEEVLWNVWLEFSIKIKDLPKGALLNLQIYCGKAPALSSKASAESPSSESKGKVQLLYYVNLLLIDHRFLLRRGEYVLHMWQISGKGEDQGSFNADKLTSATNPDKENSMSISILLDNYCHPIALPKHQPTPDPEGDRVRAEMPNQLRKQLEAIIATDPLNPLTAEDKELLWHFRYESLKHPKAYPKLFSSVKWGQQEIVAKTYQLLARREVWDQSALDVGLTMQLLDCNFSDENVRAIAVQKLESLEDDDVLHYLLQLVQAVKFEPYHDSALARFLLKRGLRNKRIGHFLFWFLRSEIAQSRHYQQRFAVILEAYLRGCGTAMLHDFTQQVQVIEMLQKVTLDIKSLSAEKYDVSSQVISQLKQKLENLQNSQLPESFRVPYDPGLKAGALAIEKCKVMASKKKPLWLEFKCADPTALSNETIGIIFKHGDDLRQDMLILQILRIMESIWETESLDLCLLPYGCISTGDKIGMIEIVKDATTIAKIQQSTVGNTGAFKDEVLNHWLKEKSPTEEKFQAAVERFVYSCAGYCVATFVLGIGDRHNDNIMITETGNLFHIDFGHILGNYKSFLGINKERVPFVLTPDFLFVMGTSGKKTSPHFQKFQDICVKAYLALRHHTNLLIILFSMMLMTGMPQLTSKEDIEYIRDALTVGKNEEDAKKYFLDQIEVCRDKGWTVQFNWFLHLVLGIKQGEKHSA

[8] = Solubility test in buffer solution at pH=1; format: physicochemical; settings: pH=1 buffer solution, simulated gastric fluid, thermodynamic from solid; buffer solution pH=1
Method: Compound 9 1.02 mg was precisely weighed and placed in 1.5 mL of EP tube, and 10 uL pH=1 buffer solution was added, vortexed for 30S and ultrasonic for 20 min. There was a lot of visible turbidity after that.
20 uL buffer was added and ultrasounded and the solution was found still turbid. Turbidity reduced after the solution was diluted to 1 mL and vortexed, while there still exist residual after diluted to 2 mL.

[9] = test system: human lung carcinoma A549 xenografts; assay: In vivo efficacy on human lung carcinoma A549 xenografts in nude mice; parameters: species or system BALB/C nude mice; settings: ig, GSK2126458 3 mg/kg, compound 9 10 mg/kg
Description: Strain: BALB/C nude mice (SPF grade), Source: Shanghai Slac laboratory animal limited liability company, the production license number: SCXK (Shanghai) 2007-0005, the using license number: SYXK (Shanghai) 2009-0068, gender: male, weight: 18-20 g, the number of animals per group: 6.
A549 solid tumors which were well-grown were taken, cut to uniform bits of about 3 mm size under aseptic condition, every bit was inoculated to each mouse subcutaneously in the right armpit with trocar, and randomly divided into three groups, each treatment was:
1) Control (saline), gavage, the dose 25 ml/kg, 14 days;
3) Compound 9, gavage, the dose 10 mg/kg, 14 days;
Regrouped according to tumor size on the 13th day after inoculation, the animals of which tumor size is too large and too small were eliminated, the average tumor volume of each group are basically the same. Administration was carried out according to the above regimen; the dosing volume was 0.5 ml/20 g body weight. The axis (a), shorter diameter (b) of tumor was measured 2 times a week with an electronic digital caliper, calculate formula of tumor volume (tumor volume, TV) is as follows: TV=1/2×a×b2, calculate formula of relative tumor volume (relative tumor volume, RTV), is as follows: RTV=Vt/Vo, wherein Vo is the tumor volume measured at the time when dividing cages (i.e. dl), Vt is the tumor volume measured each time. […] T test was conducted. Animals were sacrificed 30 days after inoculation, dissected and the tumor mass were taken, tumor weight was measured.

[10] = target: PI3Kβ (Homo sapiens, UniProt P42338); assay: ADP-Glo Luminescent Kinase Assay, PI3Kβ; format: biochemical; settings: read-out: IC50 on PI3K beta
Sequence of PI3Kβ (P42338 whole entry, species assumed): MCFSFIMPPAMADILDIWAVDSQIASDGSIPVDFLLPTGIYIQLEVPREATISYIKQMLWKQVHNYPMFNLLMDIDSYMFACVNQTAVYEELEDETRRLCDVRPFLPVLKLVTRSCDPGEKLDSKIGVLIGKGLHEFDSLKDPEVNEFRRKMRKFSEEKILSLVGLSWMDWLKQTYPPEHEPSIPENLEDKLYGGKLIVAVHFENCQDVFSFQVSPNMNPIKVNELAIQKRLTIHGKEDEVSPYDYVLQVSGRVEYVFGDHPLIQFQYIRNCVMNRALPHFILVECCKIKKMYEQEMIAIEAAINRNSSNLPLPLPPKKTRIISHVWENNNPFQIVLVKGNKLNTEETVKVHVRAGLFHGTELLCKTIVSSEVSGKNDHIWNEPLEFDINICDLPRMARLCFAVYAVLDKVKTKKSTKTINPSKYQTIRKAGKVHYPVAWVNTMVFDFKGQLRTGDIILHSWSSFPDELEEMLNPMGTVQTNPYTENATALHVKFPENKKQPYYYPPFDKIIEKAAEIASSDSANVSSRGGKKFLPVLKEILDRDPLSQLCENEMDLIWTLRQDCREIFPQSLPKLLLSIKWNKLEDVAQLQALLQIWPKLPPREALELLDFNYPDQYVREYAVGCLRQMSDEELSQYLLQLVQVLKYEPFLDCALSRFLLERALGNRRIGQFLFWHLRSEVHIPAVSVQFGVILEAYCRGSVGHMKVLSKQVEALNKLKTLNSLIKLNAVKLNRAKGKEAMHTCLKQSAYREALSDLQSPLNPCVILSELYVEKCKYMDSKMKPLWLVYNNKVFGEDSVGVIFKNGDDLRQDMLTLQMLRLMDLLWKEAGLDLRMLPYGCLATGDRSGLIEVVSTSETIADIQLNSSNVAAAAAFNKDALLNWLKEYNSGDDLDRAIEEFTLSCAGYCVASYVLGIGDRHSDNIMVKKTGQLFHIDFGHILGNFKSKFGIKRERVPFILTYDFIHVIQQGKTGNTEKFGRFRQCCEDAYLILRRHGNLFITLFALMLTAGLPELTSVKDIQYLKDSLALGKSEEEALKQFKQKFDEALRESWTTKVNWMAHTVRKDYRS
Sequence of PI3Kβ (P27986 whole entry partner, species assumed): as the sequence (P27986 whole entry partner, species assumed) above

[11] = target: PI3K delta (Homo sapiens, UniProt O00329); assay: Kinase-Glo Luminescent Kinase Assay, PI3K delta; format: biochemical
Sequence of PI3K delta (O00329 whole entry): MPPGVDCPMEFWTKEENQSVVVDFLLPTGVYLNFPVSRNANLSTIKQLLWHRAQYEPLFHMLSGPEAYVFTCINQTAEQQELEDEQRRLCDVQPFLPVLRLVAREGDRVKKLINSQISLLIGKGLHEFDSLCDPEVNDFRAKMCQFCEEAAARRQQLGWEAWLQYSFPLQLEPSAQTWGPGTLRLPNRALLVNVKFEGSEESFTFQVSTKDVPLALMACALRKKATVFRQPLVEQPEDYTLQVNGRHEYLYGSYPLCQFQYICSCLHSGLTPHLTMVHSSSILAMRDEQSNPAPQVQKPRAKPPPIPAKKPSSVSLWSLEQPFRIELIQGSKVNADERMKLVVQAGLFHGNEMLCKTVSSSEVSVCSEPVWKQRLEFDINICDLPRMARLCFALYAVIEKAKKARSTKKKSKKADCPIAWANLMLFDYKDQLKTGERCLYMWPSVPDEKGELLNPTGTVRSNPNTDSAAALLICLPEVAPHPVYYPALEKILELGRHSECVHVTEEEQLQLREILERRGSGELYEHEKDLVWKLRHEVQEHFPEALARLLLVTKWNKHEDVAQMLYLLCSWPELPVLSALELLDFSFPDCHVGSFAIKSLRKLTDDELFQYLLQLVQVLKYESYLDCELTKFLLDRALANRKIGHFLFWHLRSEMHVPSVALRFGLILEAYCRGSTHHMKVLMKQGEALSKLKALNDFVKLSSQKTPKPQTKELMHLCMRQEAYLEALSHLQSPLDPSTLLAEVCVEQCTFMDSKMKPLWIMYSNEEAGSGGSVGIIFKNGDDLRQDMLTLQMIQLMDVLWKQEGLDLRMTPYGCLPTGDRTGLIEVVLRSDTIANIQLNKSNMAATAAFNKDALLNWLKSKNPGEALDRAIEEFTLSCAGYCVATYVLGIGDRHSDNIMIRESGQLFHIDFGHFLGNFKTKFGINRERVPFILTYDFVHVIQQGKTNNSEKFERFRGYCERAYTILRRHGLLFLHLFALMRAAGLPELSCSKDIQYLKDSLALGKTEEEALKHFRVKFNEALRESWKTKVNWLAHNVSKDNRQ
Sequence of PI3K delta (P27986 whole entry partner): as the sequence (P27986 whole entry partner, species assumed) above

[12] = target: mTOR (Homo sapiens, UniProt P42345); assay: Lance Ultra Assay, mTOR; format: biochemical

| Compound | melting point [°C] | IC50 [1] [µg/mL] | IC50 [2] [µg/mL] | IC50 [3] [µg/mL] | IC50 [4] [µg/mL] | IC50 [5] [µg/mL] | pIC50 [6] | pIC50 [7] | solubility at 20 min [8] [µg/mL] | Animal wight (g) (tumor removed) ([9]; at end) | pIC50 [10] | pIC50 [11] | pIC50 [12] | Tumor Inhibition rate % [9] [%] | RTV (d18) x ± SD ([9]; d18) |
| --- | --- | --- | --- | --- | --- | --- | --- | --- | --- | --- | --- | --- | --- | --- | --- |
| COc1ncc(-c2ccc3nccc(-c4ccnnc4)c3c2)cc1NS(=O)(=O)c1ccc(F)cc1F [GSK2126458, reference compound] | – | – | 0.014 (≈ 0.0277 µM) | – | 0.537 (≈ 1.06 µM) | – | – | 9.21 | 200 (≈ 396 µM) | 21.41 ± 1.49 | – | – | – | 65.93 | 6.91 ± 1.97 |
| COc1ncc(-c2ccc3nccc(-n4cncn4)c3c2)cc1NS(=O)(=O)c1ccc(F)cc1F [Compound 1, N-(5-(4-(1H-1,2,4-triazole-1-yl)quinolin-6-yl)-2-methoxypyridine-3-yl)-2,4-difluorobenzenesulfonamide] | 123 to 124 | 0.011 (≈ 0.0222 µM) | 0.00819 (≈ 0.0166 µM) | 1.37 (≈ 2.77 µM) | 0.475 (≈ 0.961 µM) | 0.454 (≈ 0.918 µM) | 9.26 | 9.33 | – | – | 8.44 | 8.59 | 8.96 | – | – |

The remaining compounds from weak to strong by pIC50 [6], led by results:

| melting point [°C] | IC50 [1] [µg/mL] | IC50 [2] [µg/mL] | IC50 [3] [µg/mL] | IC50 [4] [µg/mL] | IC50 [5] [µg/mL] | pIC50 [6] | pIC50 [7] | solubility at 20 min [8] [µg/mL] | Animal wight (g) (tumor removed) ([9]; at end) | pIC50 [10] | pIC50 [11] | pIC50 [12] | Compound | Tumor Inhibition rate % [9] [%] | RTV (d18) x ± SD ([9]; d18) |
| --- | --- | --- | --- | --- | --- | --- | --- | --- | --- | --- | --- | --- | --- | --- | --- |
| 175 to 176 | 1.31 (≈ 2.54 µM) | 0.642 (≈ 1.24 µM) | 5.63 (≈ 10.9 µM) | 34.7 (≈ 67 µM) | 6.69 (≈ 12.9 µM) | 8.35 | – | – | – | – | – | – | COc1ncc(-c2ccc3nccc(-c4ccc(C)cc4)c3c2)cc1NS(=O)(=O)c1ccc(F)cc1F [Compound 6, N-(2-methoxy-5-(4-(p-methylphenyl)quinolin-6-yl)pyridin-3-yl)-2,4-difluorobenzenesulfonamide] | – | – |
| 90 to 92 | 0.235 (≈ 0.408 µM) | 0.043 (≈ 0.0747 µM) | 2.65 (≈ 4.6 µM) | 11.7 (≈ 20.3 µM) | 2.45 (≈ 4.26 µM) | 8.59 | – | – | – | – | – | – | CCOC(=O)c1ccc(-c2ccnc3ccc(-c4cnc(OC)c(NS(=O)(=O)c5ccc(F)cc5F)c4)cc23)cc1 [Compound 8, 4-(6-(5-(2,4-difluorobenzenesulfonamideyl)-6-methoxypyridine-3-yl)quinolin-4-yl) ethyl benzoate] | – | – |
| 171 to 173 | 3.04 (≈ 6.59 µM) | 1.36 (≈ 2.94 µM) | 2.26 (≈ 4.89 µM) | > 100 | 2.59 (≈ 5.61 µM) | 8.64 | – | – | – | – | – | – | COc1ncc(-c2ccc3nccc(Cl)c3c2)cc1NS(=O)(=O)c1ccc(F)cc1F [Compound 4, N-(5-(4-chlorinequinolin-6-yl)-2-methoxypyridine-3-yl)-2,4-difluorobenzenesulfonamide] | – | – |
| 219 to 221 | 2.27 (≈ 4.43 µM) | 1.23 (≈ 2.4 µM) | 11.5 (≈ 22.4 µM) | 64.7 (≈ 126 µM) | 2.16 (≈ 4.21 µM) | 8.85 | – | – | – | – | – | – | COc1ncc(-c2ccc3nccc(N4CCOCC4)c3c2)cc1NS(=O)(=O)c1ccc(F)cc1F [Compound 3, N-(2-methoxy-5-(4-morpholinequinolin-6-yl)pyridin-3-yl)-2,4-difluorobenzenesulfonamide] | – | – |
